Data set [1] has as its system hepatocellular carcinoma (HepG-2). In words: In vitro cytotoxic assay. It counts as cell-based, human.
In data set [2] the test system is prostate carcinoma (PC-3). Description: In vitro cytotoxic assay. In kind it is cell-based, human.
Data set [3] relates to breast adenocarcinoma (MCF-7). Description: In vitro cytotoxic assay. It counts as cell-based, human.
The subject of data set [4] is non-small cell lung cancer cells (A-549). Description: In vitro cytotoxic assay. In kind it is cell-based, human.
The next data set in a line: In vitro cytotoxic assay. In kind it is cell-based. To be noted: normal peripheral blood mononuclear cells (PBMCs).
The test system of another data set is p53 ubiquitination. In words: In vivo p53 ubiquitination inhibition of MCF-7 cells. The conditions noted are these: Homo sapiens, MCF7, 6 h, read-out: IC50 (mean ± SEM) p53 ubiquitination. In kind it is cell-based.
The target of another data set is EGFR^WT (Homo sapiens, UniProt P00533). Description: HTRF kinase inhibition assay, EGFR^WT.
The target in a further data set is EGFR^T790M (Homo sapiens, UniProt P00533, T790M). Description: HTRF kinase inhibition assay, EGFR^T790M.
Sequence of EGFR^T790M (P00533 25-1210 T790M): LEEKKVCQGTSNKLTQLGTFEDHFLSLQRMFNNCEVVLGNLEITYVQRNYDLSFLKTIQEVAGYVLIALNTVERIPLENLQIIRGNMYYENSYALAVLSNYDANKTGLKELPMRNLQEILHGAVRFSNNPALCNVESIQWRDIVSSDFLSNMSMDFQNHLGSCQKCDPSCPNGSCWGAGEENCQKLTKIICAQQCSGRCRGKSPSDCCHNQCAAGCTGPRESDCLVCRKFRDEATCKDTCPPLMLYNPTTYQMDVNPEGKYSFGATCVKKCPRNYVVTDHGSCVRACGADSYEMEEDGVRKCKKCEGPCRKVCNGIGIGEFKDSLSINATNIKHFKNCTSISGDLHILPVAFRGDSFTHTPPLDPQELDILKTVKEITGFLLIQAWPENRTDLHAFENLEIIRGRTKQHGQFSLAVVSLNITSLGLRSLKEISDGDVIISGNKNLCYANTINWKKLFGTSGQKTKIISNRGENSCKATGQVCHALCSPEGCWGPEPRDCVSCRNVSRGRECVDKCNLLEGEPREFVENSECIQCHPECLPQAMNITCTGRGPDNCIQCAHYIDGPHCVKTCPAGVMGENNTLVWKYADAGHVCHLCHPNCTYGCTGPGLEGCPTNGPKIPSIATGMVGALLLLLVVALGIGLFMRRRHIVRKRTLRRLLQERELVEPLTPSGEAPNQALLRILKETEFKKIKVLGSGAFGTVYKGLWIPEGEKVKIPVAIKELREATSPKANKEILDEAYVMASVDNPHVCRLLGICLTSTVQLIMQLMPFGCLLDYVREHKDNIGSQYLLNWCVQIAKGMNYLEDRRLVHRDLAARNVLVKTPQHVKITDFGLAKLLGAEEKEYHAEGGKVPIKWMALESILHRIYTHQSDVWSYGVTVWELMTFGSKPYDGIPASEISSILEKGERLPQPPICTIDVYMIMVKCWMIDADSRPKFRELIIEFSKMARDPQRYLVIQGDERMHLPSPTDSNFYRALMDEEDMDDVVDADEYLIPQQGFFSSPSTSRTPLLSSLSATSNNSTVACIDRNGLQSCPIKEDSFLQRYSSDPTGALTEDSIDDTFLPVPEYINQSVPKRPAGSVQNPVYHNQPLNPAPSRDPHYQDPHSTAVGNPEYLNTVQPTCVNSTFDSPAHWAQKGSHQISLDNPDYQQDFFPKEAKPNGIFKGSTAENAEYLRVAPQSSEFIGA

Sequence of EGFR^WT (P00533 25-1210): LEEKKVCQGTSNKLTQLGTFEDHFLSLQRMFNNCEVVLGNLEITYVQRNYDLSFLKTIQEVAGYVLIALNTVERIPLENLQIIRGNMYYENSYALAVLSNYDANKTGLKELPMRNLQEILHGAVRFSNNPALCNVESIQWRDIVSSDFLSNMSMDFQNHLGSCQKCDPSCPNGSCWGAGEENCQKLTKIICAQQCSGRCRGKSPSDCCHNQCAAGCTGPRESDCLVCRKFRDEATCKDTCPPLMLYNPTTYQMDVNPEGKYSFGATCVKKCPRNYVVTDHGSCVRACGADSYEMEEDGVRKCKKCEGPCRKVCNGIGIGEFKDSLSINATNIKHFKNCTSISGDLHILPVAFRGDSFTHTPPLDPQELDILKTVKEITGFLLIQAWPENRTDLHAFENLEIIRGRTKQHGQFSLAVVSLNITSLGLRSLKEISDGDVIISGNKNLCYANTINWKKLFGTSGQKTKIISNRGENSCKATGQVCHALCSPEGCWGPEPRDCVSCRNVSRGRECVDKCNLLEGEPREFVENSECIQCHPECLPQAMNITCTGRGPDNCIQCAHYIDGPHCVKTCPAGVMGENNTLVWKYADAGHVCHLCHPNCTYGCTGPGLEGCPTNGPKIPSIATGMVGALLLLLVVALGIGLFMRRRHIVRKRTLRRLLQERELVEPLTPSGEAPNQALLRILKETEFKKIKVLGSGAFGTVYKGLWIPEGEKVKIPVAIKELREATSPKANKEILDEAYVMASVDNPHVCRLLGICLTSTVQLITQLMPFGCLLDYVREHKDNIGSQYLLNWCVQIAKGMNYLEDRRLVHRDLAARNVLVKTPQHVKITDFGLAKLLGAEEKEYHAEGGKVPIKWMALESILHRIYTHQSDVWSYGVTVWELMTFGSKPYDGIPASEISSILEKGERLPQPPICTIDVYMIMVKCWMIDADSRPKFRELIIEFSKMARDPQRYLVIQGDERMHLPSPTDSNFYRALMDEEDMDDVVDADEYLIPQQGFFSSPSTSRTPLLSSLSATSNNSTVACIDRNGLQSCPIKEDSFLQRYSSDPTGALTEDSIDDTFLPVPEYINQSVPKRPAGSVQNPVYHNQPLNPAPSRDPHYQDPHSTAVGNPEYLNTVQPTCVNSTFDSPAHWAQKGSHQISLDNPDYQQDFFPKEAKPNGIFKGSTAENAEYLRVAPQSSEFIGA

A word on the IC50: it is the concentration at which inhibition is half-maximal. For the compound `O=[N+]([O-])c1ccc(Nc2nc(Cc3ccccc3)nn2-c2ccccc2)c(Cl)c1` [Compound 6c, 3-Benzyl-N-(2-chloro-4-nitrophenyl)-1-phenyl-1H-1,2,4-triazol-5-amine], the IC50 was 7.73 ± 0.04 µM in data set [1] (Homo sapiens, HepG2, 48 h, read-out: IC50 (mean ± SEM) HepG-2); 26.41 ± 0.05 µM in data set [2] (Homo sapiens, 48 h, read-out: IC50 (mean ± SEM) PC-3); 2.51 ± 0.06 µM in data set [3] (Homo sapiens, MCF7, 48 h, read-out: IC50 (mean ± SEM) MCF-7); 5.8 ± 0.05 µM in data set [4] (Homo sapiens, A549, 48 h, read-out: IC50 (mean ± SEM) A-549); 0.00048 ± 2e-05 µM with p53 ubiquitination; 0.15 ± 0.02 µM on EGFR^WT. Further, on EGFR^T790M, half-maximal inhibition (IC50) required 0.13 ± 0.07 µM. For the same compound, in data set [1] (selectivity index, normal PBMC vs HepG-2), the “SI (selectivity index) HepG-2” value is recorded as “SI = 24.27”. Also, the “SI (selectivity index) PC-3” value in data set [2] (selectivity index, normal PBMC vs PC-3) was “SI = 7.10”. Besides, the “SI (selectivity index) MCF-7” value in data set [3] (selectivity index, normal PBMC vs MCF-7) is listed as “SI = 74.76”. In addition, the “SI (selectivity index) A-549” value in data set [4] (selectivity index, normal PBMC vs A-549) is recorded as “SI = 32.35”. The compound also yielded an IC50 at 48 h in the data set “In vitro cytotoxic assay” of 188 ± 19.8 µM.

(Values after PMC8892849 (ACS Omega, 2022).)
